Values quoted from earlier work in patent publication US20070232685A1, “CRYSTALLINE FORMS OF N-(BENZO[B]THIEN-3-YLMETHYL)-SULFAMIDE” (priority 2006, published 2007).

Test system: carbonic anhydrase
Conditions: background statement on a known anticonvulsant; no method given

## CC1(C)O[C@@H]2[C@@H](CO[C@@]3(COS(N)(=O)=O)OC(C)(C)O[C@@H]23)O1 [Topiramate]
  carbonic anhydrase inhibition: single digit micromolar
